The source made the active and inactive calls. The calls are words filed in the database; no cut-off is given here.
What was measured:
[1] = target: 5-hydroxytryptamine receptor 1B (Homo sapiens, UniProt P28222); test: Binding affinity against 5-hydroxytryptamine 1D receptor beta expressed in CHO-K1 cells, using [3H]5-HT as the radioligand.; type: cell-based; settings: read-out: Ki
[2] = target: T1, 5-hydroxytryptamine receptor 1A (Rattus norvegicus, UniProt P19327); test: Binding affinity against 5-hydroxytryptamine 1A receptor from CHO-K1 cells, using [3H]8-OH-DPAT as the radioligand.; type: cell-based
T1 sequence (P19327 whole entry): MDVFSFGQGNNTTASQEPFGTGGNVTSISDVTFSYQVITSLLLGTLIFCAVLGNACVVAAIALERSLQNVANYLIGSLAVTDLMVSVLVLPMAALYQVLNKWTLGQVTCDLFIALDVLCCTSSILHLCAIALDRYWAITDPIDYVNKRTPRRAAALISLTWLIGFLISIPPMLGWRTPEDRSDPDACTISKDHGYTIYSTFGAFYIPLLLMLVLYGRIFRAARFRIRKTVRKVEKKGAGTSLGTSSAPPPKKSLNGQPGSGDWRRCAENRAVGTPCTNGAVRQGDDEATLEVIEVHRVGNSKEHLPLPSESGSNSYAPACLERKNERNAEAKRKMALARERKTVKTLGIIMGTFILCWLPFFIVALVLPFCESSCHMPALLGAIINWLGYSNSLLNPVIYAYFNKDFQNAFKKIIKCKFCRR

[3] = target: T2, D(2) dopamine receptor (Rattus norvegicus, UniProt P61169); test: Binding affinity against Dopamine receptor D2 expressed in CHO-K1 cells, using [3H]U-86170 as the radioligand.; type: cell-based
[4] = target: T3, D(3) dopamine receptor (Rattus norvegicus, UniProt P19020); test: Compound was tested for binding affinity against Dopamine receptor D3 expressed in CHO-K1 cells, using [3H]spiperone as the radioligand.;I = inactive (less than 50% inhibition at 1 uM).; type: cell-based
[5] = target: 5-hydroxytryptamine receptor 1D (Homo sapiens, UniProt P28221); test: Binding affinity against 5-hydroxytryptamine 1D receptor alpha expressed in CHO-K1 cells, using [3H]-5-HT as the radioligand.; type: cell-based; settings: read-out: Ki
[6] = test system: Rattus norvegicus; test: Bioavailability in male Sprague-Dawley rats, after the po administration at a dose of 20.0(pmol/g/h); type: ADME, organism-based; settings: in vivo
[7] = test system: Rattus norvegicus; test: The compound was tested in vivo for DOPA accumulation in hemispheres (cortex) against reserpine-pretreated rats;I= inactive at the highest dose tested; type: functional, organism-based
[8] = test system: Rattus norvegicus; test: compound was tested in vivo for DOPA accumulation in corpus striatum against reserpine-pretreated rats; I=inactive at the highest dose tested; type: functional, organism-based
[9] = tmax in hours at a po dose of 20.0(pmol/g/h).; type: ADME, organism-based; settings: in vivo
[10] = target: T3, D(3) dopamine receptor; test: Binding affinity against Dopamine receptor D3 from CHO-K1 cells, using [3H]spiperone as the radioligand.; type: cell-based; settings: read-out: Ki
[11] = test system: Rattus norvegicus; test: Bioavailability in male Sprague-Dawley rats, after the iv administration at a dose of 1.0(pmol/g/h); type: ADME, organism-based; settings: in vivo
[12] = tmax in hours at a iv dose of 1.0(pmol/g/h).; type: ADME, organism-based; settings: in vivo
[13] = test system: Rattus norvegicus; test: The compound was tested in vivo for DOPA accumulation in limbic system against reserpine-pretreated rats;I= inactive at the highest dose tested; type: functional, organism-based
[14] = test system: Rattus norvegicus; test: Oral bioavailability in rat
[15] = target: T2, D(2) dopamine receptor; test: Binding affinity against Dopamine receptor D2 from CHO-K1 cells, using [3H]U-86,170 as the radioligand.; type: cell-based
[16] = test system: Rattus norvegicus; test: The compound was tested in vivo for DOPA accumulation in hemispheres (cortex) against reserpine-pretreated rats; I= inactive at the highest dose tested (12.5).; type: functional, organism-based
[17] = test system: Rattus norvegicus; test: compound was tested in vivo for 5-HTP accumulation in corpus striatum against reserpine-pretreated rats, activity expressed as ED50; type: functional
[18] = target: T3, D(3) dopamine receptor; test: The compound was tested in vitro for binding affinity against cloned mammalian Dopamine receptor D3 expressed in CHO cells by, using [3H]spiperone as radioligand; type: cell-based
[19] = test system: Rattus norvegicus; test: compound was tested in vivo for 5-HTP accumulation in limbic system against reserpine-pretreated rats,; type: functional
[20] = test system: Rattus norvegicus; test: compound was tested in vivo for 5-HTP accumulation in hemispheres (cortex) against reserpine-pretreated rats(; type: functional
[21] = test system: Rattus norvegicus; test: compound was tested in vivo for DOPA accumulation in corpus striatum against reserpine-pretreated rats; P=significant partial reduction only at the highest dose tested (12.5).; type: functional, organism-based
[22] = test system: Rattus norvegicus; test: compound was tested in vivo for 5-HTP accumulation in limbic system against reserpine-pretreated rats; type: functional
[23] = test system: Rattus norvegicus; test: compound was tested in vivo for 5-HTP accumulation in hemispheres (cortex) against reserpine-pretreated rats; type: functional
[24] = test system: Rattus norvegicus; test: compound was tested in vivo for 5-HTP accumulation in hemispheres (cortex) against reserpine-pretreated rats; inactive at the highest dose tested; type: functional
[25] = test system: Rattus norvegicus; test: compound was tested in vivo for 5-HTP accumulation in corpus striatum against reserpine-pretreated rats, activity expressed as ED50; inactive at the highest dose tested; type: functional
[26] = test system: Rattus norvegicus; test: compound was tested in vivo for 5-HTP accumulation in limbic system against reserpine-pretreated rats; inactive at the highest dose tested; type: functional
[27] = test system: Rattus norvegicus; test: In vivo for DOPA accumulation in limbic system against reserpine-pretreated rats.; type: functional
[28] = test system: Rattus norvegicus; test: In vivo for 5-HTP accumulation in hemispheres (cortex) against reserpine-pretreated rats.; type: functional
[29] = test system: Rattus norvegicus; test: The Compound was tested in vivo for DOPA accumulation in hemispheres (cortex) against reserpine-pretreated rats;I= inactive at the highest dose tested (50).; type: functional, organism-based
[30] = test system: Rattus norvegicus; test: In vivo for 5-HTP accumulation in corpus striatum against reserpine-pretreated rats.; type: functional
[31] = test system: Rattus norvegicus; test: In vivo for 5-HTP accumulation in limbic system against reserpine-pretreated rats.; type: functional
[32] = test system: Rattus norvegicus; test: Compound was tested in vivo for DOPA accumulation in corpus striatum against reserpine-pretreated rats; type: functional

Chain of 5-hydroxytryptamine receptor 1B (P28222 whole entry): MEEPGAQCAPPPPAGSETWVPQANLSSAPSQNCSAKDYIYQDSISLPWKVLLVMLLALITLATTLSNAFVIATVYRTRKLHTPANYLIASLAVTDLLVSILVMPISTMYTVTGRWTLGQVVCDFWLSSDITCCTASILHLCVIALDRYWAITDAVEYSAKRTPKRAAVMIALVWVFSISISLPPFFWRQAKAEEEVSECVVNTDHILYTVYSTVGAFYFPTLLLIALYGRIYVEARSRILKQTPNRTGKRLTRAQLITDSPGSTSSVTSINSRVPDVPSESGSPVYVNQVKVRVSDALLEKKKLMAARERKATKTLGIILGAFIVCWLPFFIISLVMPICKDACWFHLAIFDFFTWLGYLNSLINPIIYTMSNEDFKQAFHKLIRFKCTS
T3 sequence (P19020 whole entry): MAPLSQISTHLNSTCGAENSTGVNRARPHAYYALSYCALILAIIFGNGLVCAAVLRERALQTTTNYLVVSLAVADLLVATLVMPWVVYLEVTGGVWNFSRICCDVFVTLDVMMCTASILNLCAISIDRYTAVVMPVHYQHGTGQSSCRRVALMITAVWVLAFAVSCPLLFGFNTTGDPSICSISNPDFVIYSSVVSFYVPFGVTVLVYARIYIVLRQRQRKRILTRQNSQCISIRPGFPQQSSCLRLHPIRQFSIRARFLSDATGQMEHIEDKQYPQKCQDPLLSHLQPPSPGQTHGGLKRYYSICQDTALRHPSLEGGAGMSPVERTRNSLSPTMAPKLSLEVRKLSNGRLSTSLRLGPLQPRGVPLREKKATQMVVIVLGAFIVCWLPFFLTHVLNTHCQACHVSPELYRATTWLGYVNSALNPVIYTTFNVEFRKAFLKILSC
Chain of 5-hydroxytryptamine receptor 1D (P28221 whole entry): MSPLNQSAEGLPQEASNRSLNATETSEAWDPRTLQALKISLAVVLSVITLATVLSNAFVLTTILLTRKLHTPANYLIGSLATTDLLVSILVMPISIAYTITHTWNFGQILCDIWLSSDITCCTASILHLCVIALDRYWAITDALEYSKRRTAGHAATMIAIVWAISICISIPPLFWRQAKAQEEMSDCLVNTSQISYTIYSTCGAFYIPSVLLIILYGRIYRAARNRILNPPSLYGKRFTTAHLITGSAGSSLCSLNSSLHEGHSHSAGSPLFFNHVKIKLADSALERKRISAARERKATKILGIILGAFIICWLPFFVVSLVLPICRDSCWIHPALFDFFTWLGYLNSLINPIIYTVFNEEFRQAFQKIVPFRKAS
T2 sequence (P61169 whole entry): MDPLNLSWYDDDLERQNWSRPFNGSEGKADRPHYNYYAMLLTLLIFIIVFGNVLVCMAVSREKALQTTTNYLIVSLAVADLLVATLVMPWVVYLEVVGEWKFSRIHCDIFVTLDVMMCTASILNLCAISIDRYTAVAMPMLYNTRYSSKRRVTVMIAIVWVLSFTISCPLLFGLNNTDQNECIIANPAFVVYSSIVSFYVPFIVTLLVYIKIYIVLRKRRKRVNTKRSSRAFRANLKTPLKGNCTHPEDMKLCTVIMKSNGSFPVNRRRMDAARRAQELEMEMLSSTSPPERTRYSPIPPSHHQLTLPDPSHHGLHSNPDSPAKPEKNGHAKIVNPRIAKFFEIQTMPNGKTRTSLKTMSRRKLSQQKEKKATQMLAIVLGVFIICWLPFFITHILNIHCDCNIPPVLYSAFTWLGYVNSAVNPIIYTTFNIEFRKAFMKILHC

| SMILES | Ki [1] | Ki [2] | Ki [3] | Ki [5] | ED50 [7] | Ki [10] | Ki [15] | ED50 [17] | other results |
| --- | --- | --- | --- | --- | --- | --- | --- | --- | --- |
| CCCN(CCC)C1CCc2ccc3[nH]cc(S(C)(=O)=O)c3c2C1 (stereo not drawn) | 373 nM | 11 nM | 265 nM | 52 nM |  |  |  |  | Ki [4]: Not Active |
| CCCN(CCC)C1CCc2cccc(O)c2C1 (stereo not drawn) [8-OH-DPAT] |  |  |  |  | inactive | 333 nM | 1130 nM |  | AUC [6]: 104 pM ml-1; ED50 [8]: inactive; Tmax [9]: 29 min; AUC [11]: 213 pM ml-1; Tmax [12]: 3 min; ED50 [13]: inactive; F [14]: 2.4% |
| CCCN(CCC)C1CCc2cc(F)c3[nH]cc(C=O)c3c2C1 (stereo not drawn) | 82 nM | 0.5 nM | 65 nM | 4.6 nM |  |  |  | 0.042 µmol/kg | ED50 [16]: inactive; Ki [18]: 65 nM; ED50 [19]: 0.079 µmol/kg; ED50 [20]: 0.027 µmol/kg; ED50 [21]: Weak activity |
| CCCN(CCC)[C@@H]1CCc2cc(F)c3[nH]cc(C=O)c3c2C1 |  | 0.3 nM |  | 4.4 nM | inactive | 55 nM | 48 nM | 0.083 µmol/kg | ED50 [22]: 0.078 µmol/kg; ED50 [23]: 0.084 µmol/kg |
| CCCN(CCC)[C@H]1CCc2cc(F)c3[nH]cc(C=O)c3c2C1 | 179 nM | 0.8 nM |  | 34 nM | inactive | 78 nM | 199 nM |  | ED50 [24]: 0.32 µmol/kg; ED50 [25]: 0.17 µmol/kg; ED50 [26]: 0.23 µmol/kg |
| CCCN(CCC)C1CCc2ccc3[nH]cc(C(=O)C(F)(F)F)c3c2C1 (stereo not drawn) | 279 nM | 20 nM |  | 112 nM |  | 675 nM | 544 nM |  | ED50 [27]: 20.8 µmol/kg; ED50 [28]: 16.3 µmol/kg; ED50 [29]: inactive; ED50 [30]: 6.5 µmol/kg; ED50 [31]: 12.6 µmol/kg; ED50 [32]: 12.6 µmol/kg |

Source: ChEMBL document CHEMBL1128401, “Structure-activity relationships in the 8-amino-6,7,8,9-tetrahydro-3H-benz[e]indole ring system. 1. Effects of substituents in the aromatic system on serotonin and dopamine receptor subtypes” (J Med Chem, 1995)
